Laboratory results from US20200255492A1, “LEPTIN PEPTIDES AND THEIR USE FOR TREATING NEUROLOGICAL DISORDERS” (UNIVERSITY OF DUNDEE, priority 2017, published 2020).

System: mitochondria
Test: MitoRed analysis of mitochondrial morphology after 6-OHDA (cellular Parkinson's Disease model)
Type: cell-based
Settings: 100 μM; 1 hour
Procedure: Cultures were established on 3 separate occasions in quadruplicate and stained with MitoRED to identify mitochondria after 1 hour of treatment. Statistical significance relative to untreated control is denoted with ** where P<0.01 and *** where P<0.001. Representative images of 100 μM 6-OHDA-treated MitoRED stained cultures (C) and 100 μM 6-OHDA and leptin116-130 co-treated MitoRED stained cultures are shown. Scale bar represents […].
The human neuroblastoma cell line, SH-SY5Y (ECACC, UK) was maintained in Dulbecco's Modified Eagle Medium supplemented with glucose ([…]) and 10% (v/v) cosmic calf serum (Fisher Scientific, UK) at 37° C. in a humidified atmosphere of 5% CO2, 95% air and allowed to reach 70-80% confluence before seeding. Cells (passage 10-18) were plated at 2×10^5 cells on 13 mm borosilicate class coverslips or at 10 000 cells per well in 96 well tissue culture plates (Nunc, VWR, UK) prior to treatment. Reagents used were (from Sigma UK unless stated) 1 nM human leptin, leptin (116-121), leptin (117-122) and leptin (117-125); 0.0001-1 nm murine leptin fragments leptin (116-121), leptin (117-122) and leptin (116-130); 100 μM 6-hydroxydopamine; 10 μM CuCl2; […] Aβ1-42.
Cells were treated with pre-warmed cell culture medium containing 1 μM MitoRed ((9-[2-(4′-Methylcoumarin-7′-oxycarbonyl)phenyl]-3,6-bis(diethylamino)xanthylium chloride) and returned to the incubator for 45 minutes. Following fixation in NBF for 15 minutes, cells were washed 3 times in PBS. Coverslips were mounted in fluorescence mountant onto microscope slides and imaged on the Zeiss Axio MR2 microscope. The mean mitochondrial area and index of fragmentation (number of mitochondria: total area of mitochondrial material) were calculated using Fiji.

In the case of `NCCc1cc(O)c(O)cc1O` [6-OHDA, 6-hydroxydopamine, reference compound], the “cross-sectional area of individual mitochondria, 6-OHDA alone” value is reported as “increase in the cross-sectional area of individual mitochondria” and the “mitochondrial fragmentation, 6-OHDA alone” value is reported as “decrease in mitochondrial fragmentation”.
